Results from PubChem BioAssay AID330 (DTP/NCI, 2004).
Values joined by “and” are separate entries in the source; they are usually repeats but may differ in a detail not shown here. Equal entries are not always repeated. Inconclusive results and toxic doses are left out. Rule for the calls: active = survival T/C of 150% or more; inactive = T/C below 125% in these data.

System: P388 leukemia ip, CD2F1 mice, survival T/C
Experiment: NCI In Vivo Anticancer Drug Screen. Data for tumor model P388 Leukemia (intraperitoneal) in CD2F1 (CDF1) mice
Details: endpoint: median survival time, higher = longer survival
Method in brief: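 Mice carrying the transplanted tumor received test compound or vehicle. Survival was recorded in each group, and the value is the treated-group measurement divided by that of the vehicle-treated control group.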

[1] = dose: 60.0 mg/kg/injection, schedule: Q01DX005 (ip), vehicle: saline with Tween-80
[2] = dose: 120.0 mg/kg/injection, schedule: Q01DX005 (ip), vehicle: saline with Tween-80
[3] = dose: 240.0 mg/kg/injection, schedule: Q01DX005 (ip), vehicle: saline with Tween-80
[4] = dose: 50.0 mg/kg/injection, schedule: Q01DX009 (ip), vehicle: saline
[5] = dose: 100.0 mg/kg/injection, schedule: Q01DX009 (ip), vehicle: saline
[6] = dose: 50.0 mg/kg/injection, schedule: Q01DX005 (ip), vehicle: Klucel (hydroxypropylcellulose) (HPC)
[7] = dose: 100.0 mg/kg/injection, schedule: Q01DX005 (ip), vehicle: Klucel (hydroxypropylcellulose) (HPC)
[8] = dose: 200.0 mg/kg/injection, schedule: Q01DX005 (ip), vehicle: Klucel (hydroxypropylcellulose) (HPC)
[9] = dose: 100.0 mg/kg/injection, schedule: Q04DX002 (ip), vehicle: saline with Tween-80
[10] = dose: 200.0 mg/kg/injection, schedule: Q04DX002 (ip), vehicle: saline with Tween-80
[11] = dose: 400.0 mg/kg/injection, schedule: Q04DX002 (ip), vehicle: saline with Tween-80
[12] = dose: 200.0 mg/kg/injection, schedule: Q01DX009 (ip), vehicle: saline
[13] = dose: 50.0 mg/kg/injection, schedule: Q01DX009 (ip), vehicle: Klucel (hydroxypropylcellulose) (HPC)
[14] = dose: 100.0 mg/kg/injection, schedule: Q01DX009 (ip), vehicle: Klucel (hydroxypropylcellulose) (HPC)
[15] = dose: 200.0 mg/kg/injection, schedule: Q01DX009 (ip), vehicle: Klucel (hydroxypropylcellulose) (HPC)
[16] = dose: 60.0 mg/kg/injection, schedule: Q01DX005 (ip), vehicle: Klucel (hydroxypropylcellulose) (HPC)
[17] = dose: 120.0 mg/kg/injection, schedule: Q01DX005 (ip), vehicle: Klucel (hydroxypropylcellulose) (HPC)
[18] = dose: 240.0 mg/kg/injection, schedule: Q01DX005 (ip), vehicle: Klucel (hydroxypropylcellulose) (HPC)

Measured: T/C

S=C1CCNCC1
inactive: dose: 3.13 mg/kg/injection, schedule: Q04DX003 (ip), vehicle: saline 100 % of control | dose: 6.25 mg/kg/injection, schedule: Q04DX003 (ip), vehicle: saline 104 % of control | dose: 12.5 mg/kg/injection, schedule: Q04DX003 (ip), vehicle: saline 100 % of control | dose: 25.0 mg/kg/injection, schedule: Q04DX003 (ip), vehicle: saline 100 % of control | dose: 50.0 mg/kg/injection, schedule: Q04DX003 (ip), vehicle: saline 90 % of control

Cc1ccc(C(=O)OC2C3(C)CCC(C3)C2(C)C)cc1 (stereo not given)
inactive: [1] 100 % of control | [2] 100 % of control | [3] 94 % of control

COC(=O)C1(F)C(=O)NC(=O)NC1OC (stereo not given)
active: dose: 240.0 mg/kg/injection, schedule: Q04DX002 (ip), vehicle: Klucel (hydroxypropylcellulose) (HPC) 157 % of control | dose: 480.0 mg/kg/injection, schedule: Q04DX002 (ip), vehicle: Klucel (hydroxypropylcellulose) (HPC) 164 % of control
inactive: dose: 30.0 mg/kg/injection, schedule: Q04DX002 (ip), vehicle: Klucel (hydroxypropylcellulose) (HPC) 117 % of control | dose: 60.0 mg/kg/injection, schedule: Q04DX002 (ip), vehicle: Klucel (hydroxypropylcellulose) (HPC) 118 % of control and 123 % of control

O=C(O)Cc1sc(-c2ccccc2)nc1-c1ccc(Cl)cc1
inactive: dose: 50.0 mg/kg/injection, schedule: Q01DX009 (ip), vehicle: saline with Tween-80 114 % of control | dose: 100.0 mg/kg/injection, schedule: Q01DX009 (ip), vehicle: saline with Tween-80 110 % of control | dose: 200.0 mg/kg/injection, schedule: Q01DX009 (ip), vehicle: saline with Tween-80 112 % of control

COP(=O)(O)NS(C)(=O)=O
inactive: dose: 25.0 mg/kg/injection, schedule: Q01DX009 (ip), vehicle: saline 100 % of control | [4] 102 % of control | [5] 103 % of control

O=C1NC(=O)C(C(=O)Nc2ccc(Cl)cc2)c2ccccc21 (stereo not given)
inactive: [6] 101 % of control | [7] 95 % of control | [8] 99 % of control

Cc1cc2cc3c(=O)[nH]c(=O)nc-3n(CC(O)C(O)C(O)CO)c2cc1C (stereo not given)
inactive: dose: 15.0 mg/kg/injection, schedule: Q01DX005 (ip), vehicle: saline with Tween-80 101 % of control and 103 % of control | dose: 30.0 mg/kg/injection, schedule: Q01DX005 (ip), vehicle: saline with Tween-80 116 % of control and 98 % of control

Cc1ccc2c(c1)SP(c1ccccc1)S2 (stereo not given)
inactive: [9] 103 % of control | [10] 104 % of control | [11] 112 % of control

COc1cc(C(=O)Nc2ccc(NC3=NCCN3)cc2)cc(C(=O)Nc2ccc(NC3=NCCN3)cc2)c1
inactive: dose: 6.25 mg/kg/injection, schedule: Q01DX005 (ip), vehicle: saline with Tween-80 102 % of control | dose: 12.5 mg/kg/injection, schedule: Q01DX005 (ip), vehicle: saline with Tween-80 106 % of control | dose: 25.0 mg/kg/injection, schedule: Q01DX005 (ip), vehicle: saline with Tween-80 115 % of control

O=C(O)CCOCCC(=O)O
inactive: dose: 50.0 mg/kg/injection, schedule: Q01DX005 (ip), vehicle: saline 97 % of control | dose: 100.0 mg/kg/injection, schedule: Q01DX005 (ip), vehicle: saline 97 % of control | dose: 200.0 mg/kg/injection, schedule: Q01DX005 (ip), vehicle: saline 97 % of control

COc1c(OC(C)=O)c(OC(C)=O)cc2c1-c1ccc(OC)c(=O)cc1C(NC(C)=O)CC2 (stereo not given)
inactive: dose: 0.25 mg/kg/injection, schedule: Q01DX005 (ip), vehicle: saline 117 % of control | dose: 0.5 mg/kg/injection, schedule: Q01DX005 (ip), vehicle: saline 123 % of control
active: dose: 4.0 mg/kg/injection, schedule: Q01DX005 (ip), vehicle: saline 155 % of control | dose: 8.0 mg/kg/injection, schedule: Q01DX005 (ip), vehicle: saline 163 % of control | dose: 16.0 mg/kg/injection, schedule: Q01DX005 (ip), vehicle: saline 172 % of control

O=C1CSCC(=O)OCCOCCOCCOCCO1
inactive: dose: 100.0 mg/kg/injection, schedule: Q04DX003 (ip), vehicle: saline 100 % of control | dose: 200.0 mg/kg/injection, schedule: Q04DX003 (ip), vehicle: saline 101 % of control | dose: 400.0 mg/kg/injection, schedule: Q04DX003 (ip), vehicle: saline 100 % of control

CCN(CC)CCOC(=O)/C=C\c1cccc2c(=O)cc(-c3ccccc3)oc12
inactive: [4] 100 % of control | [5] 101 % of control | [12] 117 % of control

CNC(=O)OCc1nnn(-c2ccccc2)c1COC(=O)NC
inactive: dose: 12.5 mg/kg/injection, schedule: Q01DX005 (ip), vehicle: distilled water + Tween-80 98 % of control | dose: 25.0 mg/kg/injection, schedule: Q01DX005 (ip), vehicle: distilled water + Tween-80 98 % of control | dose: 50.0 mg/kg/injection, schedule: Q01DX005 (ip), vehicle: distilled water + Tween-80 96 % of control | dose: 100.0 mg/kg/injection, schedule: Q01DX005 (ip), vehicle: distilled water + Tween-80 91 % of control | dose: 200.0 mg/kg/injection, schedule: Q01DX005 (ip), vehicle: distilled water + Tween-80 88 % of control

COc1ccc(-c2c(N)cnc(C(=O)O)c2C)c(O)c1OC
inactive: dose: 12.5 mg/kg/injection, schedule: Q01DX009 (ip), vehicle: other 95 % of control | dose: 25.0 mg/kg/injection, schedule: Q01DX009 (ip), vehicle: other 104 % of control | dose: 50.0 mg/kg/injection, schedule: Q01DX009 (ip), vehicle: other 112 % of control | dose: 100.0 mg/kg/injection, schedule: Q01DX009 (ip), vehicle: other 95 % of control | dose: 200.0 mg/kg/injection, schedule: Q01DX009 (ip), vehicle: other 100 % of control

C/C=C\c1noc2c1C(=O)OC(C)C2 (stereo not given)
inactive: [1] 104 % of control | [2] 96 % of control | [3] 103 % of control

Cc1cccc(CC(O)c2ccc(C=O)cc2)n1 (stereo not given)
inactive: [1] 105 % of control | [2] 98 % of control | [3] 98 % of control

NC(CCCCNCC(N)C(=O)O)C(=O)O (stereo not given)
inactive: [4] 91 % of control | [5] 89 % of control | [12] 92 % of control

CC1(C)OP(=O)(O)c2ccccc21
inactive: [13] 100 % of control | [14] 100 % of control | [15] 88 % of control

O=C1NC(=O)C(C2CC2)(C2CC2)N1
inactive: dose: 50.0 mg/kg/injection, schedule: Q01DX005 (ip), vehicle: saline with Tween-80 103 % of control | dose: 100.0 mg/kg/injection, schedule: Q01DX005 (ip), vehicle: saline with Tween-80 101 % of control | dose: 200.0 mg/kg/injection, schedule: Q01DX005 (ip), vehicle: saline with Tween-80 101 % of control

CCN(CC)CCNc1c(OC)c(OC)cc2nccnc12
inactive: dose: 25.0 mg/kg/injection, schedule: Q01DX005 (ip), vehicle: suspension in saline 98 % of control | dose: 50.0 mg/kg/injection, schedule: Q01DX005 (ip), vehicle: suspension in saline 98 % of control | dose: 100.0 mg/kg/injection, schedule: Q01DX005 (ip), vehicle: suspension in saline 98 % of control

CC(C)n1c(Cl)c(C(=O)O)c2ccccc21
inactive: [9] 100 % of control | [10] 98 % of control | [11] 100 % of control

OC1OCC(COc2ccc(Cl)cc2)OC1O (stereo not given)
inactive: [1] 108 % of control and 118 % of control | [2] 111 % of control | [3] 123 % of control

O=C(CO)C1CC2CCC1C2 (stereo not given)
inactive: [16] 101 % of control | [17] 101 % of control | [18] 99 % of control

CCOC(=O)C(CC(C(=O)O)c1ccccc1)c1ccccc1 (stereo not given)
inactive: [6] 100 % of control | [7] 96 % of control | [8] 96 % of control

CCOC(=O)/C(C#N)=C(\O)CCCC(=O)O
inactive: [13] 88 % of control | [14] 91 % of control | [15] 90 % of control

Brc1ccc2c(ccc3c2nnc2ncnn23)c1
inactive: [16] 102 % of control | [17] 93 % of control | [18] 86 % of control

NC(=O)c1csc([C@@H](O)Cc2ccccc2)n1
inactive: [1] 105 % of control | [2] 106 % of control | [3] 106 % of control

CCCCCCCC(=O)NN(Cn1c(=S)sc2ccccc21)Cn1c(=S)sc2ccccc21
inactive: [6] 96 % of control | [7] 88 % of control | [8] 88 % of control
